According to article PMC10490226, “Synthesis, Characterization, and Anticancer Activity of New N,N′-Diarylthiourea Derivative against Breast Cancer Cells” (Molecules, 2023):

What was measured:
MCF-7 cells [1] = assay: MTT cytotoxicity test on MCF-7 cells; type: cell-based; conditions: Homo sapiens; for IC50: MCF7, 24 h, MTT, 24 h incubation, doses 50 to 1000 µM, mean of three, read-out: IC50 concentration, 50% inhibition of MCF-7 cell viability; for viability at 50 µM / viability at 100 µM / viability at 150 µM / viability at 300 µM / viability at 600 µM / viability at 1000 µM: MCF7, 24 h, read-out: Cell Viability %; for viability at 50 µM: MCF-7, dose 50 µM; for viability at 100 µM: MCF-7, dose 100 µM; for viability at 150 µM: MCF-7, dose 150 µM; for viability at 300 µM: MCF-7, dose 300 µM; for viability at 600 µM: MCF-7, dose 600 µM; for viability at 1000 µM: MCF-7, dose 1000 µM
Experimental: (§1) The human cells that were utilized in the study included breast cancer cells, specifically the MCF-7 cell lines, along with normal lung cells, specifically the WI38 cell lines. These cell lines were taken from the American Type Culture Collection (ATCC). These cells were maintained in RPMI media with penicillin (100 U/mL), glutamine, 10% fetal bovine serum, and streptomycin ([…]) in a humidified incubator (5% CO2, 37 °C).
As indicated before, the prepared compounds (1–6) were tested for their capacity to inhibit the growth of MCF-7 cancer cells, employing the MTT experiment. In short, 1 × 10^5 of MCF-7 cells/mL were seeded into each well of a 96-well plate and cultured in the growth mixture at 37 °C overnight. The MCF-7 cells were then exposed to the test compounds at 37 °C for 24 h at doses that ranged from 50 to 1000 µM.
The cells were then observed under an inverted microscope (Leica DMI3000B, Mannheim, Germany) for toxicity markers in both the control and treated cells. Following this, the cells were subjected to MTT solution, which caused MTT to be converted into formazan (MTT’s metabolic product), the amount of which was directly proportionate to the total number of viable cells. The formazan crystal was then extracted from the cells by treating them with dimethyl sulfoxide. Microplate reader (Bio-Rad, Hercules, CA, USA) readings were taken at 570 nm, and the percentage of live MCF-7 cells was calculated using the following Formula (1) to indicate the influence of the studied compounds on the proliferation of the tested cells. Cell viability % = (Abs. of tested compound − Abs. of blank)/(Abs. of control − Abs. of blank) × 100 (1)
(§2) The half-suppressing dose (IC50) of the tested compounds was estimated via a dose-response curve following incubation for 24 h. To further determine whether the compounds were safe for use on living tissues, the MTT technique was used at concentrations ranging from 50 to 1000 µM to analyze the influence of the compounds on the viability of healthy WI38 cells. Results are presented as the mean of three independent evaluations of each value.

wi38 cells = assay: MTT viability test on normal WI38 lung cells; type: cell-based, human
Experimental: as §1, §2

MCF-7 cells [2] = assay: Lactate dehydrogenase (LDH) leakage test (ELISA); type: cell-based, human; conditions: untreated control 85.35 ± 4.2 U/L, p < 0.001
Experimental: The levels of the released lactate dehydrogenase enzyme (LDH) in compound 4-treated MCF-7 cells were detected using the double-antibody sandwich ELISA technique (SunRed, Cat. N. 201-28-0094) to further estimate the cytotoxic impact of the tested compound 4 against MCF-7 cells. In brief, the compound 4-treated MCF-7 cancer cells were centrifuged, and 40 µL of the resulted supernatant was added to the tested wells. Following this, LDH-antibody (10 µL) and Streptavidin-HRP (50 µL) were transferred to each well for analysis. Subsequently, the 96-well plate was gently shaken, and incubated for 60 min at 37 °C. Following washing, chromogen solution A (50 µL) and chromogen solution B (50 µL) were transferred to each of the test wells, and the plates were left to incubate at 37 Celsius, out of the light, for 10 min. Next, each well was treated with stop solution (50 µL). Finally, the optical density, OD, for the tested plate was measured at 450 nm. Using the prepared standard curve, the concentration of the released LDH was estimated.

MCF-7 cells [3] = assay: DNA fragmentation analysis by comet assay; type: cell-based, human
Experimental: Prior to subjecting the MCF-7 cells to compound 4, they were exposed to a caspase-3 inhibitor (Z-DEVD-FMK) in order to assess the potential involvement of caspase-3 activity in the DNA damage induced by compound 4. The occurrence of DNA damage was assessed in MCF-7 cells treated with compound 4 only (IC50 concentration) and MCF-7 cells that were pretreated with Z-DEVD-FMK (50 μM) for 1 h and then treated with compound 4 (IC50 concentration) for 24 h, utilizing the comet test. Fragmentation causes the broken DNA to be separated from the healthy cellular DNA, generating a comet tail that can be identified under a fluorescence microscope. Comet parameters were calculated using TriTek Comet Score™ software (TriTek Corp., Herndon, VA, USA), following a computerized image analysis system that recorded 100 photographs of randomly shaped comets for each slide. The tail moment and tail DNA, two often-employed markers, were combined for data finding. The Olive tail moment (OTM) has been honed to be the most precise method for assessing DNA damage. In accordance with the following Equation (2), its value can be determined by the tail’s DNA concentration and DNA mobility. OTM = quantity of tail moment × quantity of tail DNA/100(2)

[4] = system: cleaved caspase-3 (activated caspase-3); assay: ELISA quantification of active (cleaved) caspase-3 in MCF-7 cells; type: cell-based, human; conditions: MCF-7, IC50 dose (338.33 µM), p < 0.001, result in words
Experimental: The expression levels of the human active caspase-3 protein when cleaved at Asp175/Ser176 were measured in compound 4-treated MCF-7 cells, using an ELISA method (Invitrogen, Waltham, MA, USA, Catalog # KHO1091). In a nutshell, after incubating the tested compound 4 with MCF-7 cell cultures for 2 h, the supernatant (100 μL) was plated into a 96-well ELISA plate, and the resulting pellets were discarded. Each well was then suspended with 100 μL of a caspase-3 (active) antibody detection solution and left to incubate at room temperature for 1 h. The solution was then decanted from the wells and rinsed four times. Furthermore, HRP-Anti-Rabbit Antibody solution (100 µL) was added to each well, and the plate was incubated for 30 min at room temperature. A stabilized chromogen substrate (100 µL) was transferred to each well, and the plate was allowed to incubate for 30 min at room temperature, in darkness. At 450 nm, optical density readings were taken from the tested plate after adding 100 µL of stop solution to each well. Utilizing a standard curve, the quantity of active caspase-3 protein in the treated MCF-7 cells was calculated.

breast cancer cells = system: breast cancer cells; parameters: method as in doi:10.31788/RJC.2022.1536976; conditions: read-out: IC50 concentration against the viability of breast cancer cells; cited from earlier work
[5] = IC50 concentration 24 h, with caspase-3 inhibitor Z-DEVD-FMK (50 μM, 1 h) pretreatment

CCCCCCCCCCCCCCCCOc1ccc(NC(=O)Nc2ccccc2)cc1 [Compound 3, 1-(4-(hexadecyloxy)phenyl)-3-phenylurea] gave an IC50 (MCF-7 cells [1]) of 619.7 ± 4.33 µM, a viability at 50 µM (MCF-7 cells [1]) of 97.3 ± 2.45% and a viability at 100 µM (MCF-7 cells [1]) of 93.6 ± 1.82%. For the same compound, the viability at 150 µM (MCF-7 cells [1]) was 80.7 ± 2.44%, the viability at 300 µM (MCF-7 cells [1]) was 64.9 ± 1.66% and the viability at 600 µM (MCF-7 cells [1]) was 56.7 ± 2.55%. It also gave a viability at 1000 µM (MCF-7 cells [1]) of 20.9 ± 2.75%.

CCCCCCOc1ccc(NC(=O)Nc2ccccc2)cc1 [Compound 1, 1-(4-(hexyloxy)phenyl)-3-phenylurea] showed an IC50 (MCF-7 cells [1]) of 726.6 ± 1.29 µM, a viability at 50 µM (MCF-7 cells [1]) of 98.6 ± 2.21% and a viability at 100 µM (MCF-7 cells [1]) of 87.3 ± 1.34%. It also gave a viability at 150 µM (MCF-7 cells [1]) of 80.6 ± 2.76%, a viability at 300 µM (MCF-7 cells [1]) of 67.2 ± 1.13% and a viability at 600 µM (MCF-7 cells [1]) of 57.2 ± 2.44%. The viability at 1000 µM (MCF-7 cells [1]) was 36.4 ± 1.34%.

Compound CCCCCCOc1ccc(NC(=S)Nc2ccc(F)cc2)cc1 [Compound 4, 1-(4-fluorophenyl)-3-(4-(hexyloxy)phenyl)thiourea] has an IC50 (MCF-7 cells [1]) of 338.3 ± 1.52 µM, a viability at 50 µM (MCF-7 cells [1]) of 100 ± 2.24% and a viability at 100 µM (MCF-7 cells [1]) of 90.2 ± 2.78%. The viability at 150 µM (MCF-7 cells [1]) was 48.1 ± 1.15%, the viability at 300 µM (MCF-7 cells [1]) was 21.2 ± 1.66% and the viability at 600 µM (MCF-7 cells [1]) was 18.3 ± 1.92%. For the same compound, the viability at 1000 µM (MCF-7 cells [1]) was 7.28 ± 2.56%, the IC50 (wi38 cells; Homo sapiens, WI-38, doses 50 to 1000 µM) was 1463 ± 4.78 µM and the “Cytotoxic effects on normal human lung cells (wi38 cells)” value (wi38 cells; result in words) was “no cytotoxic effects”. The “LDH levels in treated MCF-7 cells” value (MCF-7 cells [2]) was 521.77 ± 30.8 U/L, the “% DNA in Tail” value (MCF-7 cells [3]; [5]) was 14.37 ± 1.33 % and the “Olive Tail Moment (OTM)” value (MCF-7 cells [3]; [5]) was 1.87 ± 0.34. For the same compound, the “Tail Length (PX)” value (MCF-7 cells [3]; [5]) was 7.13 ± 2.21 PX, the “Tail Moment” value (MCF-7 cells [3]; [5]) was 1.04 ± 0.04 and the “Tail Moment” value (MCF-7 cells [3]; IC50 concentration, without caspase-3 inhibitor pretreatment, control 0.22 ± 0.02) was 1.72 ± 0.05. For the same compound, the “Olive Tail Moment (OTM)” value (MCF-7 cells [3]; IC50 concentration, without caspase-3 inhibitor pretreatment, control 0.55 ± 0.02) was 2.38 ± 0.06, the “% DNA in Tail” value (MCF-7 cells [3]; IC50 concentration, without caspase-3 inhibitor pretreatment, control 3.11 ± 1.73) was 17.26 ± 2.34 % and the “Tail Length (PX)” value (MCF-7 cells [3]; IC50 concentration, without caspase-3 inhibitor pretreatment, control 7.52 ± 1.82) was 6.67 ± 1.94 PX. The “Cleaved caspase-3 (activated caspase-3) levels versus untreated cells” value [4] was “significantly elevated”.

With CCCCCCCCOc1ccc(NC(=O)Nc2ccccc2)cc1 [Compound 2, 1-(4-(octyloxy)phenyl)-3-phenylurea] the IC50 (MCF-7 cells [1]) was 527.2 ± 1.28 µM, the viability at 50 µM (MCF-7 cells [1]) was 98.8 ± 2.26% and the viability at 100 µM (MCF-7 cells [1]) was 88.6 ± 2.22%. For the same compound, the viability at 150 µM (MCF-7 cells [1]) was 72.2 ± 2.13%, the viability at 300 µM (MCF-7 cells [1]) was 49.9 ± 1.77% and the viability at 600 µM (MCF-7 cells [1]) was 38.3 ± 1.97%. The viability at 1000 µM (MCF-7 cells [1]) was 23.3 ± 2.33%.

CCCCCCCCOc1ccc(NC(=S)Nc2ccc(F)cc2)cc1 [Compound 5, 1-(4-fluorophenyl)-3-(4-(octyloxy)phenyl)thiourea] gave an IC50 (MCF-7 cells [1]) of 567.8 ± 4.28 µM, a viability at 50 µM (MCF-7 cells [1]) of 98.6 ± 2.53% and a viability at 100 µM (MCF-7 cells [1]) of 96.5 ± 2.33%. The viability at 150 µM (MCF-7 cells [1]) was 79.5 ± 1.92%, the viability at 300 µM (MCF-7 cells [1]) was 62 ± 1.84% and the viability at 600 µM (MCF-7 cells [1]) was 45.4 ± 2.74%. The viability at 1000 µM (MCF-7 cells [1]) was 18 ± 1.45%.

For CCCCCCCCCCCCCCCCOc1ccc(NC(=S)Nc2ccc(F)cc2)cc1 [Compound 6, 1-(4-fluorophenyl)-3-(4-(hexadecyloxy)phenyl)thiourea], the IC50 (MCF-7 cells [1]) was 711.9 ± 2.5 µM, the viability at 50 µM (MCF-7 cells [1]) was 96.4 ± 2.63% and the viability at 100 µM (MCF-7 cells [1]) was 91.7 ± 2.47%. It also gave a viability at 150 µM (MCF-7 cells [1]) of 84.1 ± 1.83%, a viability at 300 µM (MCF-7 cells [1]) of 79.2 ± 2.64% and a viability at 600 µM (MCF-7 cells [1]) of 46.9 ± 2.34%. For the same compound, the viability at 1000 µM (MCF-7 cells [1]) was 36.7 ± 1.66%.

For C=CCNC(=S)NC(=O)c1ccc([N+](=O)[O-])cc1 [4-nitrobenzoyl-3-allylthiourea], the IC50 (breast cancer cells) is given as 225 µM.
